{"source": "patent US7767789B2", "about": "“Truncated proteins as cancer markers” (University Hopitals of Cleveland, priority 2005, dated 2010)", "key": {"[1]": {"tested_on": "HEK-293 cells (wild-type, expressing P2X7 or P2X7-j)", "test": "Cell-number index of HEK-293 cells grown in culture", "assay_type": "cell-based, human", "settings": "100 micromolar BzATP", "description": "Alterations in cell number for HEK-293 cells, HEK-293 cells expressing P2X7-RFL, and HEK-293 cells expressing P2X7-RTR grown in culture were studied. FIG. 15A. The three cells lines were grown in culture and viable cells were counted for a period of 3 days. The data are presented as cell number index versus days in culture. […] For example, a P2X7-RFL receptor protein may facilitate cellular apoptosis (infra).\nThe cell number of wild-type HEK-293 cells and of HEK-293 cells expressing P2X7-j protein increased to a greater degree than that of HEK-293 cells expressing the P2X7 protein. FIG. 15A."}, "[2]": {"tested_on": "HEK-293 cells expressing P2X7 or P2X7-j", "test": "Cell selection: growth with BzATP and immunoblot of P2X7/P2X7-j protein, HEK-293", "assay_type": "cell-based, human", "description": "(§1) Growth of various cell lines expressing P2X7 and/or P2X7-j in the presence or absence of BzATP was performed to determine how P2X7 receptors may affect cell selection over time. FIG. 23. HEK-293 cells expressing P2X7, HEK-293 cells expressing P2X7-j, or HeLa cells, which express both P2X7 and P2X7-j were separately grown in culture, in the presence or absence of 50 micromolar BzATP for seven (7) days. At various time points, samples of the cells were taken and examined for expression of P2X7 and/or P2X7-j protein by immunoblotting using a P2X7-specific antibody. This antibody was obtained from Alomone Labs (Jerusalem, Israel) and was reactive with the extracellular domain of P2X7 protein. Amino acids 136-152 of the mouse P2X7 receptor ([…]; (SEQ ID NO:7)) were used as the antigen to prepare the antibody. A labeled secondary antibody was used to visualize reactive protein bands. By layering equal amounts of total protein (15 micrograms) it was possible to compare the relative expression of the P2X7 and/or P2X7-j proteins by the cells."}, "HeLa cells": {"tested_on": "HeLa cells", "test": "Cell selection: growth with BzATP and immunoblot of P2X7/P2X7-j protein, HeLa", "assay_type": "cell-based, human", "settings": "50 micromolar BzATP, seven days", "description": "as §1"}, "[3]": {"molecular_target": "T1, P2X7 channel (HEK-293 cells expressing P2X7 or P2X7-j) (Homo sapiens, UniProt Q99572, R270H/Y155H)", "T1 construct": "expressed in transfected cells; host or cells: HEK-293", "T1 sequence (Q99572 whole entry Y155H/R270H)": "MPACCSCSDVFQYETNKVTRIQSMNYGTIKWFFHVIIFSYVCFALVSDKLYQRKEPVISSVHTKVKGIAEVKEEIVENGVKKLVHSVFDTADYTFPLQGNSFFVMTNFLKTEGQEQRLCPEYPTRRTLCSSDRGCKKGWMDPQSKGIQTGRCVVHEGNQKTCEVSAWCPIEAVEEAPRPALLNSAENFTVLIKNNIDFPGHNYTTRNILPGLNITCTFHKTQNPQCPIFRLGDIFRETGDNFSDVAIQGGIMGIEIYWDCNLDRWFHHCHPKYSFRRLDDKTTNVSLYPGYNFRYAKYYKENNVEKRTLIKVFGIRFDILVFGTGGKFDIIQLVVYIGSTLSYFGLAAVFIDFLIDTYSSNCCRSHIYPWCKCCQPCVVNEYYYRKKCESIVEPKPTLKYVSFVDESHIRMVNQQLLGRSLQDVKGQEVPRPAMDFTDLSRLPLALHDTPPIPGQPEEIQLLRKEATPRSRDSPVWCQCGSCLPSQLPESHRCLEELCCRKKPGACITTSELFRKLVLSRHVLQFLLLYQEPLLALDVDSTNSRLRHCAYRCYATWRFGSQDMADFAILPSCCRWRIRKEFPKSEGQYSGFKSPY", "assay_type": "cell-based", "settings": "HEK-293-P2X7 cells; 100 micromolar BzATP"}, "[4]": {"molecular_target": "T2, P2X7 channel (HEK-293 cells expressing P2X7 or P2X7-j) (Homo sapiens, UniProt Q99572, Y155H)", "T2 construct": "expressed in transfected cells; host or cells: HEK-293", "T2 sequence (Q99572 1-258 isoform Q99572-9 Y155H)": "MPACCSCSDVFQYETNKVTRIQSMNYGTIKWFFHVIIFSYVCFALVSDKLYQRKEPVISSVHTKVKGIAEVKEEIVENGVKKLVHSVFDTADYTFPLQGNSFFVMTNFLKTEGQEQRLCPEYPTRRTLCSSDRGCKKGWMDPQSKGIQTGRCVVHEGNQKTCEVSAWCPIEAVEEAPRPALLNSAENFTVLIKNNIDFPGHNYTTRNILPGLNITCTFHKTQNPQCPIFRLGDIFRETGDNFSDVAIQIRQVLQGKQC", "assay_type": "cell-based", "settings": "HEK-293-P2X7-j cells compared to HEK-293-P2X7 cells"}, "[5]": {"tested_on": "P2X7 channel (HEK-293 cells expressing P2X7 or P2X7-j)", "assay_type": "cell-based, human", "settings": "P2X7 plus P2X7-j HEK-293 cells compared to P2X7 HEK-293 cells"}, "[6]": {"molecular_target": "T3, full-length human P2X7 receptor (HEK-293-hP2X7-R cells) (Homo sapiens, UniProt Q99572)", "T3 construct": "For transfections, the full length human P2X7 receptor; expressed in transfected cells; host or cells: HEK-293, pcDNA-6 vector", "T3 sequence (Q99572 1-595)": "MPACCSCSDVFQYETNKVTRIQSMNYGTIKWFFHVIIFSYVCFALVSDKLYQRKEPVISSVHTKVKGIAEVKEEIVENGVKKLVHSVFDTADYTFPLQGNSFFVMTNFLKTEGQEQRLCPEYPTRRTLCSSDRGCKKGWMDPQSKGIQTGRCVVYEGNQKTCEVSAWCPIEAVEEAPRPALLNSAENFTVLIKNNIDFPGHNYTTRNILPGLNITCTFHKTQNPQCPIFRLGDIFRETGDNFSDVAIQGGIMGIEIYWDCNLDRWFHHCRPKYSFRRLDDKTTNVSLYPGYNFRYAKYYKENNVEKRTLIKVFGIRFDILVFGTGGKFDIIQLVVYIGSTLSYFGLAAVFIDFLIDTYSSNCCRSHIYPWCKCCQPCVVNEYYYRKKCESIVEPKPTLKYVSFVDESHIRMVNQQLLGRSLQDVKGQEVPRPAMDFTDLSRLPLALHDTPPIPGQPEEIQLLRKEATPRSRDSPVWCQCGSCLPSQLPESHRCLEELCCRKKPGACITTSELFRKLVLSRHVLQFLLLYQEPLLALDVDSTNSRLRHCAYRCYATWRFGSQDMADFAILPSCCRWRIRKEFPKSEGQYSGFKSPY", "test": "Cytosolic calcium in HEK-293-hP2X7-R and wild-type HEK293 cells on filters", "assay_type": "cell-based"}, "[7]": {"molecular_target": "T3, full-length human P2X7 receptor (HEK-293-hP2X7-R cells)", "test": "Ethidium bromide influx in HEK-293-hP2X7-R and wild-type HEK293 cells on filters", "assay_type": "cell-based"}}, "data": [{"substance": "2′-3′-O-(4-benzoylbenzoyl)adenosine 5′-triphosphate [BzATP]", "values": [{"measurement": "growth of cells (cell number)", "setting": "[1]; HEK-293-P2X7-j cells", "result": "no significant effect"}, {"measurement": "growth of cells (cell number)", "setting": "[1]; HEK-293-P2X7 cells", "result": "significantly decreased further the growth"}, {"measurement": "growth of cells (cell number)", "setting": "[1]; wild-type HEK-293 cells", "result": "no significant effect"}, {"measurement": "expression of the P2X7-j protein", "setting": "[2]; HEK-293 cells expressing P2X7-j, continuous 50 micromolar BzATP", "result": "did not decrease the expression of the P2X7-j protein"}, {"measurement": "expression of the P2X7 protein", "setting": "[2]; HEK-293 cells expressing P2X7, 50 micromolar BzATP, each day up to 7 days", "result": "less than in cells not treated with BzATP"}, {"measurement": "expression of P2X7 protein", "setting": "HeLa cells", "result": "significantly decreased"}, {"measurement": "expression of the P2X7-j protein", "setting": "HeLa cells", "result": "remained stable"}, {"measurement": "Fluo-4 signal (cytosolic calcium)", "setting": "[3]", "result": "increased acutely the Fluo-4 signal"}, {"measurement": "calcium response to BzATP", "setting": "[4]", "result": "significantly smaller"}, {"measurement": "calcium response to BzATP", "setting": "[5]", "result": "significantly smaller"}, {"measurement": "sustained cytosolic calcium increase", "setting": "[6]", "result": "induced sustained Ci increase"}, {"measurement": "influx of ethidium bromide", "setting": "[7]", "result": "influx of ethidium bromide"}]}]}
